The values below come from patent publication US5710130A, “Antithrombotic agents” (Eli Lilly and Company, priority 1995, dated 1998).

Data set [1] deals with human plasma. Kind of data set: Human plasma anticoagulation, activated partial thromboplastin time (APTT). The format is biochemical. The note with it: concentration required to double APTT, linear extrapolation. An outline of the steps:
(§1)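 Compounds added across a wide concentration range to plasma; PT measured with Thromboplastin-C, APTT after 120 s Actin incubation then 0.02 M CaCl2, TT with bovine thrombin (10 NIH units/mL). Clotting-time doubling concentrations estimated by linear extrapolation.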

A short description of data set [2]: Index of bioavailability (% Relative Activity) from plasma TT time course, oral vs i.v. The format is in vivo. The note with it: p.o. dose per legend (20, 60 or 50 mg/kg). As to the method:
Parke Davis) at 37° C. […] Assays are done in duplicate and averaged. […] Each sample population represented alternating sequential time points.

A further data set has as its target Human Thrombin (Homo sapiens, UniProt P00734). The experiment in a line: Inhibition of thrombin amidase activity (Kass), chromogenic substrate. The settings on record: mean Kass over a range of concentrations; substrate N-benzoyl-Phe-Val-Arg-p-nitroanilide. It is filed as biochemical.
In data set [3] the test system is human plasma. The experiment in a line: Human plasma anticoagulation, thrombin time (TT). It is filed as biochemical. The note with it: concentration required to double thrombin time, linear extrapolation. The essentials: as §1
For data set [4], the system named is human plasma. Kind of data set: Human plasma anticoagulation, prothrombin time (PT). The format is biochemical. The settings on record: concentration required to double PT, linear extrapolation. An outline of the steps:
as §1

A further data set deals with thrombin. The note with it: Bajusz et al., J. Med. Chem. 33, 1729-1735 (1990); cited from earlier work.
The conditions of data set [5]: early clinical studies, Simoons et al., Circulation 90, I-231 (1994); cited from earlier work.
A further data set deals with factor Xa (Homo sapiens, UniProt P00742). The experiment in a line: Kass against factor Xa, chromogenic substrate. The format is biochemical. The note with it: substrate N-Benzoyl-Ile-Glu-Gly-Arg-p-nitroanilide.
For data set [6], the target named is T1, activated protein C (aPC) (Homo sapiens, UniProt P04070).
T1 construct: made in house
The experiment in a line: Inhibition of activated protein C (aPC), chromogenic substrate. The format is biochemical. The settings on record: statement in words. As to the method:
By substantially following the procedures described above for human thrombin, and using other human blood coagulation system serine proteases and proteases of the fibrinolytic system with the appropriate chromogenic substrates, identified below, selectivity of the compounds of the present invention with respect to the coagulation factor serine proteases and with respect to the fibrinolytic system serine proteases are evaluated as well as their substantial lack of interference with serine proteases of the fibrinolytic system. Thrombin inhibitors preferably should spare fibrinolysis induced by urokinase, tissue plasminogen activator (t-PA) and streptokinase. This would be important to the therapeutic use of such agents as an adjunct to streptokinase, t-PA or urokinase thrombolytic therapy and to the use of such agents as an endogenous fibrinolysis-sparing (with respect to t-PA and urokinase) antithrombotic agent. In addition to the lack of interference with the amidase activity of the fibrinolytic proteases, such fibrinolytic system sparing can be studied by the use of human plasma clots and their lysis by the respective fibrinolytic plasminogen activators.
Human factors X, Xa, IXa, XIa, and XIIa are purchased from Enzyme Research Laboratories, South Bend, Ind.; human urokinase from Leo Pharmaceuticals, Denmark; and recombinant activated Protein C (aPC) is prepared at Eli Lilly and Co. substantially according to U.S. Pat. No. 4,981,952. Chromogenic substrates: N-Benzoyl-Ile-Glu-Gly-Arg-p-nitroanilide (for factor Xa); N-Cbz-D-Arg-Gly-Arg-p-nitroanilide (for factor IXa assay as the factor Xa substrate); Pyroglutamyl-Pro-Arg-p-nitroanilide (for Factor XIa and for aPC); H-D-Pro-Phe-Arg-p-nitroanilide (for factor XIIa); and Pyroglutamyl-Gly-Arg-p-nitroanilide (for urokinase); are purchased from KabiVitrum, Stockholm, Sweden, or from Midwest Biotech, Fishers, Ind.. Bovine trypsin is purchased from Worthington Biochemicals, Freehold, N.J., and human plasma kallikrein from Kabi Vitrum, Stockholm, Sweden. […]

Molecules are shown by their SMILES. Counter-ions that a name gives are not always drawn.

T1 sequence (P04070 212-450 limits assumed): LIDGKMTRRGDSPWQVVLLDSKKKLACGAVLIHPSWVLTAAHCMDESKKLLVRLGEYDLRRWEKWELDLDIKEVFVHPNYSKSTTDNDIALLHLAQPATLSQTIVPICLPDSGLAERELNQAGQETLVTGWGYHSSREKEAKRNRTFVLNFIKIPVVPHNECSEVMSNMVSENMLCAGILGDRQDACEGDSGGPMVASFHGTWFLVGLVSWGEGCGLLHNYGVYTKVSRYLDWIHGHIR
T1 sequence (P04070 43-197 partner limits assumed): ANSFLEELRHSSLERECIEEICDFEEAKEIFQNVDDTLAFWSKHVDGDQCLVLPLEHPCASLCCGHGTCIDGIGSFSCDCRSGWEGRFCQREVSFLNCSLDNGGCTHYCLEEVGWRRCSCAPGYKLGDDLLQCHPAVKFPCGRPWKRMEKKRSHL
Sequence of factor Xa (P00742 235-488 limits assumed): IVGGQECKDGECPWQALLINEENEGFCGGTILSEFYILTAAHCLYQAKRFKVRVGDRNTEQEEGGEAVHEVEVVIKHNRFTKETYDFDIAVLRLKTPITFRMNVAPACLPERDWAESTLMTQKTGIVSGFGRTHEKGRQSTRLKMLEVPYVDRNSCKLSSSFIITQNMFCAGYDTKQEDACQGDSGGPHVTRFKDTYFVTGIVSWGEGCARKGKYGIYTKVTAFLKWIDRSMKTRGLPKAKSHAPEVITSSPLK
Sequence of factor Xa (P00742 41-179 partner limits assumed): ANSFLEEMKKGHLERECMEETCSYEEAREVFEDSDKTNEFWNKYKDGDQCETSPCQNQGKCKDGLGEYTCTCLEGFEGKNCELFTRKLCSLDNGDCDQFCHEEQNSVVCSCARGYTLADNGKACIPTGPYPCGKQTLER

In the case of `N=C(N)c1ccc(CNC(=O)[C@@H]2C[C@@H]3CCCC[C@@H]3N2C(=O)[C@@H](Cc2ccccc2)NCC(=O)O)cc1` (relative stereo) [Example 47, HOOCCH2 -D-Phe-cis-Ohi-p-NHCH2 C6 H4 C(NH)NH2.HCl], the “Human Plasma Anticoagulation 2x Clotting time APTT” value with human plasma [1] is 140 ng/mL. The “% oral/i.v. activity (Rat), screening not completed” value in data set [2] was “NC^2”. Moreover, at Human Thrombin, the “Kass Human Thrombin” value was 45 × 10^6 (L/mole). For the same compound, the “Human Plasma Anticoagulation 2x Clotting time TT” value in the data set with human plasma [3] is 12 ng/mL. For the same compound, in the data set with human plasma [4], the “Human Plasma Anticoagulation 2x Clotting time PT” value was 270 ng/mL.
Take `CC(C)(C)OC(=O)N[C@H](Cc1ccccc1)C(=O)N1CCC[C@H]1C(=O)N[C@H](C=O)CCCNC(=N)N` [Boc-D-Phe-Pro-Arg-H]: the “direct inhibition of thrombin” value in the data set with thrombin is recorded as “potent direct inhibition”.
In the case of `CN[C@H](Cc1ccccc1)C(=O)N1CCC[C@H]1C(=O)N[C@H](C=O)CCCNC(=N)N.O=S(=O)(O)O` [D-MePhe-Pro-Arg-H sulfate], the anticoagulant in man entry in [5] is “is an anticoagulant in man”.
With `CN[C@H](Cc1ccccc1)C(=O)N1CCC[C@H]1C(=O)N[C@H](C=O)CCCNC(=N)N` [D-MePhe-Pro-Arg-H], the “direct inhibition of thrombin” value in the data set with thrombin is “potent direct inhibition”.
In the case of `N=C(N)NCCC[C@@H](C=O)NC(=O)[C@@H]1CCCN1C(=O)[C@H](N)Cc1ccccc1` [D-Phe-Pro-Arg-H], the “direct inhibition of thrombin” value in the data set on thrombin is “potent direct inhibition”.
Consider `CCS(=O)(=O)N[C@H](Cc1ccccc1)C(=O)N1CCC[C@H]1C(=O)NCCc1cccc(N=C(N)N)c1.Cl` [Example 37, EtSO2 -D-Phe-Pro-m-NHCH2 CH2 C6 H4 NHC(NH)NH2.HCl], for which the “Human Plasma Anticoagulation 2x Clotting time APTT” value with human plasma [1] is reported as > 9,000 ng/mL. For the same compound, the “Kass Human Thrombin” value at Human Thrombin was 0.02 × 10^6 (L/mole). In addition, the “Human Plasma Anticoagulation 2x Clotting time TT” value in the data set on human plasma [3] is > 9,000 ng/mL. For the same compound, the “Kass Xa” value at factor Xa was < 0.009 × 10^6 (L/mole). Further, the “Human Plasma Anticoagulation 2x Clotting time PT” value in the data set on human plasma [4] was > 9,000 ng/mL.
Regarding `Cl.Cl.N=C(N)c1ccc(CNC(=O)C2CC3CCCCC3N2C(=O)C2NCCC3CCCCC32)cc1` [Example 42, D-1-Piq-cis-Ohi-p-NHCH2 C6 H4 C(NH)NH2.2HCl], the “Human Plasma Anticoagulation 2x Clotting time APTT” value in the data set with human plasma [1] is given as 270 ng/mL. The “% oral/i.v. activity (Rat), screening not completed” value in data set [2] is on record as “NC2”. The “Kass Human Thrombin” value at Human Thrombin is recorded as 38 × 10^6 (L/mole). Moreover, the “Human Plasma Anticoagulation 2x Clotting time TT” value in the data set with human plasma [3] was 20 ng/mL. Besides, the “Human Plasma Anticoagulation 2x Clotting time PT” value in the data set on human plasma [4] is on record as 320 ng/mL.
On the same counts, the results for `Cl.Nc1ccc(CNC(=O)[C@@H]2CCCN2C(=O)[C@@H](CC2CCCCC2)NCC(=O)O)c(F)c1` [Example 64, HO2 CCH2 -D-Cha-Pro-4-NHCH2 -3-F-C6 H3 NH2.HCl] are 900 ng/mL, “NC^3”, 15 × 10^6 (L/mole), 23 ng/mL and 650 ng/mL.
On to `N=C(N)c1ccc(CNC(=O)[C@@H]2CCCN2C(=O)[C@@H](CC2CCCCC2)NCC(=O)O)nc1` [Example 66, N-(carboxymethyl)-D-cyclohexylalanyl-N-[[5-(aminoiminomethyl)pyridin-2-yl]methyl]-L-prolinamide hydrochloride], for which, in the data set on human plasma [1], the “Human Plasma Anticoagulation 2x Clotting time APTT” value is reported as 180 ng/mL. In addition, in the data set on human plasma [3], the “Human Plasma Anticoagulation 2x Clotting time TT” value is 7.9 ng/mL. Besides, the “inhibition of activated protein C (aPC)” value in data set [6] was “very weak inhibition”. Moreover, the “Human Plasma Anticoagulation 2x Clotting time PT” value in the data set with human plasma [4] is on record as 270 ng/mL.
In the same order, the values of `N=C(N)C1=CNC(CNC(=O)[C@@H]2CCCN2C(=O)[C@@H](CC2CCCCC2)NCC(=O)O)CC1` (stereo partly drawn) [Example 68, N-(carboxymethyl)-D-cyclohexylalanyl-N-[[5-(aminoiminomethyl)-1,2,3,4-tetrahydropyridin-2-yl]methyl]L-prolinamide hydrochloride] are 49 ng/mL, 4 ng/mL, “very weak inhibition” and 190 ng/mL.
As to `Cl.Cl.Cl.N=C(N)c1ccc(CNC(=O)[C@@H]2CCCN2C(=O)[C@@H](CC2CCCCC2)NCC(=O)O)nn1` [Example 69, N-(carboxymethyl)-D-cyclohexylalanyl-N-[[6-(aminoiminomethyl)pyridazin-3-yl]methyl]-L-prolinamide tri-hydrochloride], the “Human Plasma Anticoagulation 2x Clotting time APTT” value in the data set with human plasma [1] is 110 ng/mL. The “Kass Human Thrombin” value on Human Thrombin was 340 × 10^6 (L/mole). Further, the “Human Plasma Anticoagulation 2x Clotting time TT” value in the data set on human plasma [3] was 5 ng/mL. Moreover, the “inhibition of activated protein C (aPC)” value in [6] is “very weak inhibition”. Also, the “Human Plasma Anticoagulation 2x Clotting time PT” value in the data set on human plasma [4] was 220 ng/mL.
